Assay results as given in patent US20250179167A1, “IL-6 INHIBITOR AS TREATMENT FOR NEPHROPATHY” (YALE UNIVERSITY, priority 2022, published 2025).

Columns and labels:
Assay type in all cases: in vivo, mouse
[1] = tested on: db/db mice; assay: Wnt inhibitor (LGK-974) treatment in db/db mice; conditions: 5 mg/kg body weight orally by gavage
Experimental: (FIG. 38A) Postprandial blood glucose measurements in the Wnt inhibitor treatments in db/db mice and untreated control db/db mice. LGK-974 (Wnt inhibitor) was treated at 5 mg/kg body weight dose orally by gavage. (FIG. 38B) GTT analysis in the Wnt inhibitor treatments in db/db mice and untreated control db/db mice. N=6 were analyzed in each group. (FIG. 38C) Area under curve (AUC) in the Wnt inhibitor treatments in db/db mice and untreated control db/db mice. N=6 were analyzed in each group. (FIG. 38D) Physiological parameters such as body weight, epididymal fat, kidney weight, liver weight and heart weight in the Wnt inhibitor treatments in db/db mice and untreated control db/db mice. N=6 were analyzed in each group. (FIG. 38E) MTS and Sirius red staining analysis in the Wnt inhibitor treatments in db/db mice and untreated control db/db mice. Representative pictures of 30× are shown. N=6 were analyzed in each group. Relative area fibrosis (RAF) and relative collagen deposition (RCD) were quantified using Image J software program. (FIG. 38F) MTS and Sirius red staining analysis in the heart sections in the Wnt inhibitor treatments in db/db mice and untreated control db/db mice. Representative pictures of 20× are shown. N=6 were analyzed in each group. […] N=6 were analyzed in each group. […]

[2] = tested on: control and GR^ECKO mice; assay: Wnt inhibitor (LGK974) treatment in nondiabetic and diabetic control and GR^ECKO mice
Experimental: (FIG. 5A) Schematic diagram showing the treatment protocol of Wnt inhibition in diabetic control and GR^ECKO mice. (FIG. 5B) Physiological parameters including body weight, blood glucose and kidney weight/body weight were analyzed. N=6 biologically independent mice/group combined from two experiments. (FIG. 5C) Masson trichrome, Sirius red and PAS staining as well as immunohistochemical analysis of β-catenin levels in the kidneys of wnti-treated diabetic control and GR^ECKO mice. Representative images are shown; original magnification 300×. Relative area of fibrosis (%) and relative collagen deposition (%) were measured using the ImageJ program. N=8 biologically independent mice/group combined from three experiments were analyzed. Scale bar 50 μm. Data are mean SEM. For all panels one-way ANOVA with Tukey post-test was used for analysis of statistical significance. Significance—*p<0.05, **p<0.01, ***p<0.001.
Physiological parameters including body weight, blood glucose, and kidney weight/body weight are shown. n=7 biologically independent mice/group combined from two experiments were analyzed. Data are mean±SEM. One-way Anova with Tukey multiple comparison post hoc test was used to calculate statistical significance.
FIGS. 27A-27B Histological analysis of kidneys from Wnt inhibitor-treated nondiabetic control and GR^ECKO mice. (FIG. 27A) Masson trichrome staining (MITS) and Sirius red staining in Wnt inhibitor-treated nondiabetic control and GR^ECKO mice. Representative images are shown; original magnification 200×. Area of fibrosis (%) and relative collagen deposition (%) were measured using the ImageJ program. N=5 biologically independent mice/group were analyzed. Data are mean±SEM. Scale bar 50 μm. (FIG. 27B) Immunohistochemical analysis of -catenin expression in the kidneys of Wnt inhibitor-treated nondiabetic control and GR^ECKO mice. Scale bar 30 μm. n=6 biologically independent mice/group combined from two independent experiments were analyzed. Representative images are shown; original magnification 300×. One-way Anova with Tukey multiple comparison post hoc test was used to calculate statistical significance. Significance—*p<0.05, **p<0.01, ***p<0.001.
Immunohistochemical analysis of Snail1, PPAR. and HIF1. expression in the Wnti-treated and untreated control, and GR^ECKO mice. Scale bar 50 μm. n=7 biologically independent mice/group combined from three independent experiments were analyzed. Representative images are shown; original magnification 200×.
Immunofluorescence analysis of α-SMA/CD31/DAPI and E-cadherin/α-SMA/DAPI in kidneys of Wnt inhibitor-treated nondiabetic and diabetic mice. Top panel: α-SMA FITC labelled, CD31 rhodamine labelled and DAPI blue; Lower panel: E-Cadherin FITC-green labelled, α-SMA red rhodamine labelled and DAPI blue. Representative images are shown; original magnification 400×. Scale bar 50 μm. n=6 biologically independent mice/group combined from three independent experiments were analyzed. NC: non-diabetic control; DC: diabetic control; D: diabetic.
To determine whether Wnt inhibition could mitigate the renal fibrosis observed in diabetic GR^ECKO mice, a cohort of animals was treated with LGK974. At the age of 8 weeks, control and GR^ECKO mice were injected with STZ 50 mg/kg for five consecutive days. Sixteen weeks after injection, LGK974 was administered by oral gavage for eight additional weeks (FIG. 5A).
Animal Experimentation. All experiments were performed according to a protocol approved by the Institutional Animal Care and Use Committee at the Yale University School of Medicine and were in accordance with the National Institute of Health (NIH) Guidelines for the Care of Laboratory Animals Mice were housed at an ambient temperature of 68-79° F. with a humidity that ranged between 30%-70%. […]

[3] = tested on: isolated kidney ECs of diabetic CD-1 mice; assay: Fatty acid oxidation ([14CO2] release) in isolated kidney endothelial cells
Experimental: (FIG. 31B) Fatty acid oxidation, as represented by [^14CO2]released. [^14C]palmitate was used as substrate and CPM counts were normalized to protein. In both cases, endothelial cells isolated from n=5 biologically independent mice/group were analyzed in triplicate. Data are mean±SEM. One-way Anova with Tukey multiple comparison post hoc test was used to calculate statistical significance. Significance—*p<0.05, **p<0.01, ***p<0.001. Fatty Acid Oxidation. Cultured isolated kidney endothelial cells were incubated with medium containing 0.75 mmol/L palmitate (conjugated to 2% free fatty acid-free BSA/[^14C]palmitate at 2 μCi/mL) for 2 h. One mL of the culture medium was transferred to a sealable tube, the cap of which housed a Whatman filter paper disc. ^14CO2 trapped in the media was then released by acidification of media using 60% perchloric acid. Radioactivity that had become adsorbed onto the filter discs was then quantified by liquid scintillation counting.

[4] = nondiabetic control mice or nondiabetic GR^ECKO, compared to untreated nondiabetic controls

Cc1cc(-c2ncc(CC(=O)Nc3ccc(-c4cnccn4)cn3)cc2C)ccn1 [LGK974]
fibrogenic phenotype [1]: abolishes fibrogenic phenotype
level of EMT (E-cadherin/αSMA double positive cells) ([2]; control and diabetic GR^ECKO mice): significantly reduced
kidney weight ([2]; diabetic GR^ECKO and diabetic control mice): significant reduction
EndMT (CD31/αSMA double positive cells) ([2]; diabetic GR^ECKO mice): less pronounced
relative area of fibrosis ([2]; diabetic GR^ECKO mice): less pronounced, though still significant
relative collagen deposition ([2]; diabetic GR^ECKO mice): less pronounced, though still significant
tubular damage ([2]; diabetic GR^ECKO mice): less pronounced, though still significant
EndMT (CD31/αSMA double positive cells) ([2]; diabetic control mice): significantly suppressed
relative area of fibrosis ([2]; diabetic control mice): clearly improved
relative collagen deposition ([2]; diabetic control mice): clearly improved
tubular damage ([2]; diabetic control mice): clearly improved
expression of HIF1α ([2]; kidneys of diabetic GR^ECKO): suppressed
expression of Snail1 ([2]; kidneys of diabetic GR^ECKO): suppressed
level of PPARα ([2]; kidneys of diabetic GR^ECKO): significantly increased
renal fibrogenic phenotype [2, 4]: did not result in any remarkable change
β-catenin level [2, 4]: did not result in any remarkable change
level of FAO ([14CO2] release) [3]: able to restore the level of FAO
